Where a name gives a salt, the structure may show the parent alone.
Columns and labels:
Assay type in all cases: biochemical
[1] = molecular target: T1, human two-chain tPA (Homo sapiens, UniProt P00750); test: tPA Indirect (Plasminogen-Linked) Assay (tPA Direct Assay result where lower); settings: for tPA/UPA ratio: ratio with respect to urokinase indirect plasminogen-linked IC50, larger = greater specificity for urokinase
T1 construct: human two-chain tPA was substituted for urokinase; purchased American Diagnostica
Excerpt: (iv) Both direct and plasminogen-linked pNA assays for tPA, the other mammalian plasminogen activator and the key initiator of blood clot dissolution or fibrinolysis. Since urokinase and tPA share an absolute specificity for the same peptide bond in plasminogen, urokinase inhibitors designed to block cellular invasiveness must be highly specific for urokinase over tPA in order to avoid serious thrombotic side effects secondary to undesired blockage of normal fibrinolysis. […] Spectrozyme tPA®, American Diagnostica) was substituted for urokinase substrate.

[2] = molecular target: T2, human plasmin (Homo sapiens, UniProt P00747); test: Plasmin Assay; settings: for PLM/uPA ratio: ratio with respect to urokinase indirect plasminogen-linked IC50, larger = greater specificity for urokinase
T2 construct: plasmin, the potent general protease produced by cleavage of plasminogen by either urokinase or tPA; purchased American Diagnostica
Procedure: (v) A chromogenic pNA assay for plasmin, the potent general protease produced by cleavage of plasminogen by either urokinase or tPA. Although urokinase initiates cellular invasiveness by generating plasmin, the additional importance of plasmin in tPA-mediated fibrinolysis dictates that plasmin itself should be free from inhibition by urokinase inhibitors designed as anti-invasiveness agents. […] All other assay conditions, as well as methods of color quantitation, were carried out as described above for the urokinase direct assay.

[3] = molecular target: T3, urokinase (Homo sapiens, UniProt P00749); test: Urokinase Indirect (Plasminogen-Linked) Assay; settings: Table 3 column 4, simple number, unit inferred; read-out: uPA Indirect (plasminogen-linked) IC50
T3 construct: human high molecular weight urokinase; purchased American Diagnostica, Greenwich, Conn
Procedure: (ii) An indirect plasminogen-linked assay in which urokinase proteolytically activates plasminogen, forming plasmin which then cleaves a synthetic tripeptide pNA plasmin substrate.
Incubations were carried out at 22° C. for 45-60 minutes or until adequate color developed. Color qas quantitated as in the urokinase direct assay above. Parallel incubations were performed with and without plasminogen, and corrected absorbance values were obtained by subtracting values obtained without plasminogen from those obtained with plasminogen, eliminating any contribution of direct cleavage, if any, of plasmin substrate by urokinase.

[4] = molecular target: T4, human high molecular weight urokinase (Homo sapiens, UniProt P00749); test: Urokinase Direct Assay; settings: read-out: uPA Direct: percentage of residual urokinase activity relative to inhibitor-free controls; heading: uPA Direct: percentage of residual urokinase activity relative to inhibitor-free controls; inhibitor concentration of 1 mM
T4 construct: human high molecular weight urokinase; purchased American Diagnostica, Greenwich, Conn
Procedure: (i) A direct chromogenic assay in which urokinase cleaves a synthetic tripeptide p-nitroanilide (pNA) urokinase substrate.
Incubations were carried out at 37° C. for approximately 2 hours or until adequate yellow color developed. Color was quantitated by measuring absorbance at 405 nm (A405) using a Titertek Multiskan MCC/340 MK II microtiter plate spectrophotometer.

T2 sequence (P00747 581-810 limits assumed): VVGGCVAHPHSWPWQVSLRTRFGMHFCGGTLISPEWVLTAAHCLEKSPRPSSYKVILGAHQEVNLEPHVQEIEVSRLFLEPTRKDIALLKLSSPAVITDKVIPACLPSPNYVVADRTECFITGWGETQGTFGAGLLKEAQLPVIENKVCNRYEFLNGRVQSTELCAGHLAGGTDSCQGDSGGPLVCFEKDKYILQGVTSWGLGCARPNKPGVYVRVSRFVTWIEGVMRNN
T2 sequence (P00747 97-580 limits assumed): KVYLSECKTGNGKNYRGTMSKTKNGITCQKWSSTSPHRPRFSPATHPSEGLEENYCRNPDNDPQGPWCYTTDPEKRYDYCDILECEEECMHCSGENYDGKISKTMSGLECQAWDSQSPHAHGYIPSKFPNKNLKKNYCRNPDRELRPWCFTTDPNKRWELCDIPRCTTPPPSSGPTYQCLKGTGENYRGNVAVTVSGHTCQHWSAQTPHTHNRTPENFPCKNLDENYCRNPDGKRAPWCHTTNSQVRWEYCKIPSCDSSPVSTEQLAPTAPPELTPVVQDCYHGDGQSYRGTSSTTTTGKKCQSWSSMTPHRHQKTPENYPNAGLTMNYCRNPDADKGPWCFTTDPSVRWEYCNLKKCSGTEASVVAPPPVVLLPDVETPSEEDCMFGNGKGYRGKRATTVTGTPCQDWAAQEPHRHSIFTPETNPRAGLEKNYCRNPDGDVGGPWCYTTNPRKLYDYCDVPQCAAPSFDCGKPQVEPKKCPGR
T1 sequence (P00750 311-562 limits assumed): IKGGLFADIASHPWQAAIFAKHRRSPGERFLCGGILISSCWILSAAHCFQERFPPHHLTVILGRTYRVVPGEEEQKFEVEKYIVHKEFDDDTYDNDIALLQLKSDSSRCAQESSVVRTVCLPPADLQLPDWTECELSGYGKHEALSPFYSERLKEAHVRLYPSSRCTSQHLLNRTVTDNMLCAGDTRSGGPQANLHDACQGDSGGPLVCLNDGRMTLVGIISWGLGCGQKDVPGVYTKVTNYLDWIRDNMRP
T1 sequence (P00750 36-310 limits assumed): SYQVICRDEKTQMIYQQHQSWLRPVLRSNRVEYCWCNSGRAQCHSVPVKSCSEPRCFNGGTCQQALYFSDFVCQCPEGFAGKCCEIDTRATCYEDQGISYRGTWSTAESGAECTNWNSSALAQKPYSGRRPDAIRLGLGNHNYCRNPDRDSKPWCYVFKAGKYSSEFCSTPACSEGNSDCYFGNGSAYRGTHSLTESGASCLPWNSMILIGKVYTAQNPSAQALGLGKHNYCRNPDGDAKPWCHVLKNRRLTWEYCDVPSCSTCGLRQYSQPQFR

| Structure (SMILES) | residual urokinase activity at 1000 µM [4] [%] | other results |
| --- | --- | --- |
| CCc1cccc2sc(C(=N)N)cc12.Cl [Compound 7, 4-Ethylbenzo[b]thiophene-2-carboxamidine hydrochloride] | – | tPA/UPA ratio [1]: 263; IC50 ([1]; tPA Indirect Plasminogen-Linked Assay, in rare cases direct assay result if lower, read-out: tPA IC50): 184000 nM; PLM/uPA ratio [2]: 610; IC50 ([2]; read-out: PLASMIN IC50): 427000 nM; IC50 [3]: 700 nM |
| CCc1ccc2sc(C(=N)N)cc2c1 [Compound 106, 5 -Ethylbenzo[b]thiophene-2-carboxamidine hydrochloride] | 3.6 | – |
| CCCc1ccc2sc(C(=N)N)cc2c1 [Compound 107, 5-Propylbenzo[b]thiophene-2-carboxamidine hydrochloride] | 2.6 | – |
| CCCCc1ccc2sc(C(=N)N)cc2c1 [Compound 108, 5-Butylbenzo[b]thiophene-2-carboxamidine hydrochloride] | 3.4 | – |
| CC(C)CCc1ccc2sc(C(=N)N)cc2c1 [Compound 110, 5-(3-Methylbutyl)benzo[b]thiophene-2-carboxamidine hydrochloride] | 4.2 | – |
| N=C(N)c1cc2cc(CCC3CC3)ccc2s1 [Compound 112, 5-(2-Cyclopropylethyl)benzo[b]thiophene-2-carboxamidine hydrochloride] | 3.3 | – |
| N=C(N)c1cc2cc(CCO)ccc2s1 [Compound 113, 5-(2-Hydroxyethyl)benzo[b]thiophene-2-carboxamidine hydrochloride] | 2.9 | – |
| C=C(C)c1ccc2sc(C(=N)N)cc2c1 [Compound 115, 5-(1-Methylethenyl)benzo[b]thiophene-2-carboxamidine hydrochloride] | 1.2 | – |
| CC=Cc1ccc2sc(C(=N)N)cc2c1 [Compound 116, 5-(E/Z-Prop-1-enyl)benzo[b]thiophene-2-carboxamidine hydrochloride] | 1.6 | – |
| CCC=Cc1ccc2sc(C(=N)N)cc2c1 [Compound 117, 5-(E/Z-But-1-enyl)benzo[b]thiophene-2-carboxamidine hydrochloride] | 1.1 | – |
| CCC(C)=Cc1ccc2sc(C(=N)N)cc2c1 [Compound 118, 5-(E/Z-2-Methylbut-1-enyl)benzo[b]thiophene-2-carboxamidine hydrochloride] | 1.2 | – |
| CC(C)C=Cc1ccc2sc(C(=N)N)cc2c1 [Compound 119, 5-(E/Z-3-Methylbut-1-enyl)benzo[b]thiophene-2-carboxamidine hydrochloride] | 4.9 | – |
| C#Cc1ccc2sc(C(=N)N)cc2c1 [Compound 123, 5-(Ethynyl)benzo[b]thiophene-2-carboxamidine hydrochloride] | 2.5 | – |
| N=C(N)c1cc2cc(-c3cccnc3)ccc2s1 [Compound 125, 5-(Pyrid-3-yl)benzo[b]thiophene-2-carboxamidine hydrochloride] | 3.6 | – |
| N=C(N)c1cc2cc(-c3cccs3)ccc2s1 [Compound 127, 5-(Thien-2-yl)benzo[b]thiophene-2-carboxamidine hydrochloride] | 1.1 | – |
| N=C(N)c1cc2cc(-c3cc4ccccc4s3)ccc2s1 [Compound 128, 5-(Benzo[b]thien-2-yl)benzo[b]thiophene-2-carboxamidine hydrochloride] | – | IC50 [3]: 940 nM |
| N=C(N)c1cc2cc(C(F)(F)F)ccc2s1 [Compound 129, 5-(Trifluoromethyl)benzo[b]thiophene-2-carboxamidine hydrochloride] | 8.2 | – |
| N=C(N)c1cc2cc(C=O)ccc2s1 [Compound 130, 5-Formylbenzo[b]thiophene-2-carboxamidine hydrochloride] | 6.8 | – |
| N=C(N)c1cc2cc(CO)ccc2s1 [Compound 131, 5-(Hydroxymethyl)benzo[b]thiophene-2-carboxamidine hydrochloride] | 6.3 | – |
| Cc1ccc2sc(C(=N)N)cc2c1Br [Compound 202, 4-Bromo-5-methylbenzo[b]thiophene-2-carboxamidine hydrochloride] | 3 | – |
| N=C(N)c1cc2c(Cl)c(I)ccc2s1 [Compound 203, 4-Chloro-5-iodobenzo[b]thiophene-2-carboxamidine hydrochloride] | 3.5 | – |
| N=C(N)c1cc2c(ccc3ccccc32)s1 [Compound 205, Naphtho[2,1-b]thiophene-2-carboxamidine hydrochloride] | 0.27 | – |

| Structure (SMILES) | residual urokinase activity at 1000 µM [4] [%] | other results |
| --- | --- | --- |
| N=C(N)c1ccc(/C=C/c2cc3ccc4sc(C(=N)N)cc4c3s2)cc1 [Compound 209, 5-[E-2-(4-Carboxamidinophenyl)ethenyl]thieno[4,5-b]benzo[b]thiophene-2-carboxamidine bis-hydrochloride] | – | IC50 [3]: 270 nM |
| N=C(N)c1cc2ccc(I)cc2s1 [Compound 301, 6-Iodobenzo[b]thiophene-2-carboxamidine hydrochloride] | 13.7 | – |
| N=C(N)c1cc2cccc(I)c2s1 [Compound 302, 7-Iodobenzo[b]thiophene-2-carboxamidine hydrochloride] | 10.8 | – |
| Cc1ccc2cc(C(=N)N)sc2c1 [Compound 303, 6-Methylbenzo[b]thiophene-2-carboxamidine hydrochloride] | 12 | – |
| Cc1c(C(=N)N)sc2ccccc12 [Compound 304, 3-Methylbenzo[b]thiophene-2-carboxamidine hydrochloride] | 75 | – |
| N=C(N)c1sc2ccccc2c1O [Compound 305, 3-Hydroxybenzo[b]thiophene-2-carboxamidine hydrochloride] | > 90 | – |
| N=C(N)c1sc2ccccc2c1N [Compound 306, 3-Aminobenzo[b]thiophene-2-carboxamidine hydrochloride] | 41 | – |
| N=C(N)c1cc2c(F)cc(Br)cc2s1 [Compound 308, 4-Fluoro-6-bromobenzo[b]thiophene-2-carboxamidine hydrochloride] | 14.5 | – |
| COc1ccc(Br)c2sc(C(=N)N)cc12 [Compound 309, 7-Bromo-4-methoxybenzo[b]thiophene-2-carboxamidine hydrochloride] | 18 | – |
| COc1ccc(F)c2cc(C(=N)N)sc12 [Compound 310, 4-Fluoro-7-methoxybenzo[b]thiophene-2-carboxamidine hydrochloride] | > 90 | – |
| COc1c(Br)cc(Br)c2sc(C(=N)N)cc12 [Compound 311, 5,7-Dibromo-4-methoxybenzo[b]thiophene-2-carboxamidine hydrochloride] | 18 | – |
| N=C(N)c1cc2cc3ccccc3cc2s1 [Compound 313, Naphtho[2,3-b]thiophene-2-carboxamidine hydrochloride] | 11 | – |
| N=C(N)c1ccc2sccc2c1 [Compound 314, Benzo[b]thiophene-5-carboxamidine hydrochloride] | 43 | – |
| N=C(N)c1ccc2ccsc2c1 [Compound 315, Benzo[b]thiophene-6-carboxamidine hydrochloride] | 21 | – |
| N=C(N)c1csc2ccccc12 [Compound 316, Benzo[b]thiophene-3-carboxamidine hydrochloride] | 80 | – |
| N=C(N)c1cccc2sccc12 [Compound 317, Benzo[b]thiophene-4-carboxamidine hydrochloride] | 90 | – |
| N=C(N)c1cc2cccnc2s1 [Compound 318, Pyrido[2,3-b]thiophene-2-carboxamidine hydrochloride] | 55 | – |
| N=C(N)Nc1cc2ccccc2s1 [Compound 319, 2-Guanidinobenzo[b]thiophene hydrochloride] | > 90 | – |
| N=C(N)NC(=O)c1cc2ccccc2s1 [Compound 320, N-Amidino benzo[b]thiophene-2-carboxamide hydrochloride] | 84 | – |
| Cl.N=C(N)c1cc2ccsc2s1 [Compound 321, Thieno[2,3-b]thiophene-2-carboxamidine hydrochloride] | 4.1 | inhibition at 1000 µM ([1]; 1 mM inhibitor, read-out: tPA activity observed relative to inhibitor-free controls): 74%; tPA/UPA ratio [1]: ≥ 500; inhibition at 1000 µM ([2]; 1 mM inhibitor, read-out: PLASMIN activity observed relative to inhibitor-free controls): 88%; PLM/uPA ratio [2]: ≥ 1000 |
| N=C(N)c1cc2sccc2s1 [Compound 322, Thieno[3,2-b]thiophene-2-carboxamidine hydrochloride] | 2.7 | – |
| N=C(N)c1cc2cscc2s1 [Compound 323, Thieno[3,4-b]thiophene-2-carboxamidine hydrochloride] | 5.3 | – |

— US5340833A, “Urokinase inhibitors” (Eisai Co., Ltd., priority 1992, dated 1994)
